Assay results from PubChem BioAssay AID2060511 (Molecular Pharmacology Branch, DTP, NCI, 2025).

System: 422866-222-R5-J1-PDC spheroids with HUVEC/MSC, viability
Experiment: Anticancer human tumor 422866-222-R5-J1-PDC patient-derived pancreatic adenocarcinoma cell line growth inhibition [GQUAD]
Details: for IC50: curve of first compound; for viability, T/C: stronger effect = lower value
Procedure, shortened: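 Multi-cell-type spheroids of tumor cells with HUVEC and mesenchymal stem cells, treated with drug combinations. Concentrations descend in half-log steps from near clinical Cmax, or from 10 microM where Cmax is unknown; viability read-out.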

[1] = second compound 0.0316 µM, first compound 0.000999 µM
[2] = second compound 0.0316 µM, first compound 0.00316 µM
[3] = second compound 0.0316 µM, first compound 0.00999 µM
[4] = second compound 0.0316 µM, first compound 0.0316 µM
[5] = second compound 0.0316 µM, first compound 0.0999 µM
[6] = second compound 0.0316 µM, first compound 0.316 µM
[7] = second compound 0.1 µM, first compound 0.000999 µM
[8] = second compound 0.1 µM, first compound 0.00316 µM
[9] = second compound 0.1 µM, first compound 0.00999 µM
[10] = second compound 0.1 µM, first compound 0.0316 µM
[11] = second compound 0.1 µM, first compound 0.0999 µM
[12] = second compound 0.1 µM, first compound 0.316 µM
[13] = second compound 0.316 µM, first compound 0.000999 µM
[14] = second compound 0.316 µM, first compound 0.00316 µM
[15] = second compound 0.316 µM, first compound 0.00999 µM
[16] = second compound 0.316 µM, first compound 0.0316 µM
[17] = second compound 0.316 µM, first compound 0.0999 µM
[18] = second compound 0.316 µM, first compound 0.316 µM
[19] = second compound 1 µM, first compound 0.000999 µM
[20] = second compound 1 µM, first compound 0.00316 µM
[21] = second compound 1 µM, first compound 0.00999 µM
[22] = second compound 1 µM, first compound 0.0316 µM
[23] = second compound 1 µM, first compound 0.0999 µM
[24] = second compound 1 µM, first compound 0.316 µM
[25] = second compound 3.16 µM, first compound 0.000999 µM
[26] = second compound 3.16 µM, first compound 0.00316 µM
[27] = second compound 3.16 µM, first compound 0.00999 µM
[28] = second compound 3.16 µM, first compound 0.0316 µM
[29] = second compound 3.16 µM, first compound 0.0999 µM
[30] = second compound 3.16 µM, first compound 0.316 µM
[31] = second compound 10 µM, first compound 0.000999 µM
[32] = second compound 10 µM, first compound 0.00316 µM
[33] = second compound 10 µM, first compound 0.00999 µM
[34] = second compound 10 µM, first compound 0.0316 µM
[35] = second compound 10 µM, first compound 0.0999 µM
[36] = second compound 10 µM, first compound 0.316 µM
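Also: spheroids exposed to compounds for seven days before reading.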
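For viability, T/C in this document: percent viability relative to DMSO vehicle control taken as 100%.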

CCc1c2c(nc3ccc(O)cc13)-c1cc3c(c(=O)n1C2)COC(=O)[C@]3(O)CC + Cc1cnc(CNC(=O)c2c(=O)c3ccc(N4CCCN(C)CC4)nc3n3c2sc2ccccc23)cn1
IC50 (second compound 0.0316 µM): 0.00187 µM | IC50 (second compound 0.1 µM): 0.0159 µM | IC50 (second compound 0.316 µM): 0.0255 µM | IC50 (second compound 1 µM): 0.0732 µM | IC50 (second compound 3.16 µM): 0.0622 µM | IC50 (second compound 10 µM): 0.106 µM | viability, T/C [1]: 56.2% | viability, T/C [2]: 42.2% | viability, T/C [3]: 44.1% | viability, T/C [4]: 41.3% | viability, T/C [5]: 37.7% | viability, T/C [6]: 24.5% | viability, T/C [7]: 66.8% | viability, T/C [8]: 59.2% | viability, T/C [9]: 50.4% | viability, T/C [10]: 46.3% | viability, T/C [11]: 44.9% | viability, T/C [12]: 34.8% | viability, T/C [13]: 75.4% | viability, T/C [14]: 63.1% | viability, T/C [15]: 56.4% | viability, T/C [16]: 47.7% | viability, T/C [17]: 46.6% | viability, T/C [18]: 30.2% | viability, T/C [19]: 73.4% | viability, T/C [20]: 76% | viability, T/C [21]: 59.6% | viability, T/C [22]: 59.4% | viability, T/C [23]: 49.3% | viability, T/C [24]: 28.2% | viability, T/C [25]: 70.2% | viability, T/C [26]: 77.4% | viability, T/C [27]: 62.5% | viability, T/C [28]: 55.7% | viability, T/C [29]: 46.5% | viability, T/C [30]: 26.3% | viability, T/C [31]: 72.5% | viability, T/C [32]: 74.8% | viability, T/C [33]: 68% | viability, T/C [34]: 60.2% | viability, T/C [35]: 54.9% | viability, T/C [36]: 22.1%

CC(C)n1c(=O)n(C)c2cnc3cc(F)c(-c4ccc(OCCCN5CCCCC5)nc4)cc3c21 + Cc1cnc(CNC(=O)c2c(=O)c3ccc(N4CCCN(C)CC4)nc3n3c2sc2ccccc23)cn1
IC50 (second compound 0.0316 µM): > 10 µM | IC50 (second compound 0.1 µM): > 10 µM | IC50 (second compound 0.316 µM): > 10 µM | IC50 (second compound 1 µM): > 10 µM | IC50 (second compound 3.16 µM): > 10 µM | IC50 (second compound 10 µM): > 10 µM | viability, T/C [4]: 81.6% | viability, T/C (second compound 0.0316 µM, first compound 0.1 µM): 74.2% | viability, T/C [6]: 75% | viability, T/C (second compound 0.0316 µM, first compound 1 µM): 74% | viability, T/C (second compound 0.0316 µM, first compound 3.16 µM): 76.7% | viability, T/C (second compound 0.0316 µM, first compound 10 µM): 58.5% | viability, T/C [10]: 84.9% | viability, T/C (second compound 0.1 µM, first compound 0.1 µM): 85.2% | viability, T/C [12]: 75% | viability, T/C (second compound 0.1 µM, first compound 1 µM): 75.6% | viability, T/C (second compound 0.1 µM, first compound 3.16 µM): 90.8% | viability, T/C (second compound 0.1 µM, first compound 10 µM): 50.9% | viability, T/C [16]: 86.2% | viability, T/C (second compound 0.316 µM, first compound 0.1 µM): 93% | viability, T/C [18]: 96% | viability, T/C (second compound 0.316 µM, first compound 1 µM): 80.6% | viability, T/C (second compound 0.316 µM, first compound 3.16 µM): 90.8% | viability, T/C (second compound 0.316 µM, first compound 10 µM): 69.1% | viability, T/C [22]: 87.5% | viability, T/C (second compound 1 µM, first compound 0.1 µM): 85.8% | viability, T/C [24]: 87.3% | viability, T/C (second compound 1 µM, first compound 1 µM): 96% | viability, T/C (second compound 1 µM, first compound 3.16 µM): 96.7% | viability, T/C (second compound 1 µM, first compound 10 µM): 71% | viability, T/C [28]: 74.5% | viability, T/C (second compound 3.16 µM, first compound 0.1 µM): 90.5% | viability, T/C [30]: 81.1% | viability, T/C (second compound 3.16 µM, first compound 1 µM): 94.2% | viability, T/C (second compound 3.16 µM, first compound 3.16 µM): 92.6% | viability, T/C (second compound 3.16 µM, first compound 10 µM): 77.4% | viability, T/C [34]: 70.9% | viability, T/C (second compound 10 µM, first compound 0.1 µM): 76.5% | viability, T/C [36]: 82.2% | viability, T/C (second compound 10 µM, first compound 1 µM): 82.3% | viability, T/C (second compound 10 µM, first compound 3.16 µM): 85.5% | viability, T/C (second compound 10 µM, first compound 10 µM): 62.5%

CC[C@@]1(O)C(=O)OCc2c1cc1n(c2=O)Cc2cc3c(CN(C)C)c(O)ccc3nc2-1 + CN(C)c1ccc(Nc2c3ccc(NC(=O)CCN4CCCC4)cc3nc3cc(NC(=O)CCN4CCCC4)ccc23)cc1
IC50 (second compound 0.0316 µM): 0.0939 µM | IC50 (second compound 0.1 µM): > 0.316 µM | IC50 (second compound 0.316 µM): 0.0899 µM | IC50 (second compound 1 µM): 0.135 µM | IC50 (second compound 3.16 µM): 0.0853 µM | IC50 (second compound 10 µM): 0.175 µM | viability, T/C [1]: 99.1% | viability, T/C [2]: 95.8% | viability, T/C [3]: 96% | viability, T/C [4]: 76% | viability, T/C [5]: 47.3% | viability, T/C [6]: 49.7% | viability, T/C [7]: 87.2% | viability, T/C [8]: 104% | viability, T/C [9]: 98% | viability, T/C [10]: 64.3% | viability, T/C [11]: 50.9% | viability, T/C [12]: 48.7% | viability, T/C [13]: 90.9% | viability, T/C [14]: 78.6% | viability, T/C [15]: 95.2% | viability, T/C [16]: 65.1% | viability, T/C [17]: 48.3% | viability, T/C [18]: 48.6% | viability, T/C [19]: 96.8% | viability, T/C [20]: 92.9% | viability, T/C [21]: 78.6% | viability, T/C [22]: 69.8% | viability, T/C [23]: 56.5% | viability, T/C [24]: 35.8% | viability, T/C [25]: 84.1% | viability, T/C [26]: 79.2% | viability, T/C [27]: 87.8% | viability, T/C [28]: 72.5% | viability, T/C [29]: 46.1% | viability, T/C [30]: 46.7% | viability, T/C [31]: 77.5% | viability, T/C [32]: 96.3% | viability, T/C [33]: 91.8% | viability, T/C [34]: 69.8% | viability, T/C [35]: 61.4% | viability, T/C [36]: 40.3%
